Converted amounts (≈) assume the structure as drawn. Structures can show the parent of a compound that is named as a salt. Where two headings read alike, the source gives them in different places.
Legend:
[1] = target: T1, CYP2C19 (Homo sapiens, UniProt P33261); experiment: CYP450 panel inhibition in human liver microsomes, 2C19 (mephenytoin); settings: 10 μM, substrate mephenytoin
[2] = Kinetic solubility (PBS pH 7.4; 4 hr); type: physicochemical
Experimental: The plates were shaken for 4 h at room temperature in an Eppendorf Thermomixer. After incubation, the plates were centrifuged for 20 minutes at 4680 rpm. From the supernatant, 150 μL was transferred to a new 96 well plate and 50 μL DMSO was added to ensure continued dissolution. Samples were measured on LC-UV at injection volumes of 1 and 8 μL. Peak areas were determined and compared to peak areas obtained using calibration curves of the test compounds in DMSO.

[3] = target: T2, CYP3A4 (Homo sapiens, UniProt P08684); experiment: CYP450 panel inhibition in human liver microsomes, 3A4 (midazolam / testosterone); settings: 10 μM; for CYP-3A4 (Midazolam) mean percentage CYP inhibition: substrate midazolam; for CYP-3A4 (Testosterone) mean percentage CYP inhibition: substrate testosterone
T2 sequence (P08684 whole entry): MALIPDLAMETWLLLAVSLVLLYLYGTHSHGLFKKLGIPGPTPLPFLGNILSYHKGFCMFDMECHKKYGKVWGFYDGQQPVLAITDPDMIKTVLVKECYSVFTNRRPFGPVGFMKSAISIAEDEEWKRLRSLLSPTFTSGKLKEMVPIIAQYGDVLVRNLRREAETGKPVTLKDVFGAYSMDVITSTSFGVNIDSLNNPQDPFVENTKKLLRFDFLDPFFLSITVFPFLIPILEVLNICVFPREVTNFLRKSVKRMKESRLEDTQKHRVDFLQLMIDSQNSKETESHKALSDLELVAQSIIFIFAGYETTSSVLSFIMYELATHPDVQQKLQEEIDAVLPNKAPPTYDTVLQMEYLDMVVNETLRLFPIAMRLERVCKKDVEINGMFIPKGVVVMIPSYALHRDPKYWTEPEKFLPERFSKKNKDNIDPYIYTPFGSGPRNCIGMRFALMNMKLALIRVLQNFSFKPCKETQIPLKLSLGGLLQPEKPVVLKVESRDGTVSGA

[4] = target: T3, CYP2D6 (Homo sapiens, UniProt P10635); experiment: CYP450 panel inhibition in human liver microsomes, 2D6 (dextromethorphan); settings: 10 μM, substrate dextromethorphan
T3 sequence (P10635 whole entry): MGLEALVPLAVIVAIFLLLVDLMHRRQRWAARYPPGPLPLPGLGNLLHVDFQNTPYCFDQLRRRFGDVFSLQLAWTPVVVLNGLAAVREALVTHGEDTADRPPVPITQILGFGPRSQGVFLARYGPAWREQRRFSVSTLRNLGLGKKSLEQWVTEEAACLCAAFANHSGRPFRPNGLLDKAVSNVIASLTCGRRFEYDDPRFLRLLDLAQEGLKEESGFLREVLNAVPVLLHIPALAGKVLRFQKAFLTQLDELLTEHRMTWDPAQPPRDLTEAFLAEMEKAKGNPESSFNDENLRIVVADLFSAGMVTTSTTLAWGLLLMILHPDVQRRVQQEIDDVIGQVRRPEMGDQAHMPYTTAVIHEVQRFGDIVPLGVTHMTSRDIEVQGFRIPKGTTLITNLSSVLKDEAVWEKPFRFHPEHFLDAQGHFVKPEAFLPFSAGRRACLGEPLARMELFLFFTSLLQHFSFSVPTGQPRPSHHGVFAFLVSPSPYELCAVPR

[5] = target: hERG (Homo sapiens, UniProt Q12809); experiment: in vitro
hERG, sequence (Q12809 whole entry): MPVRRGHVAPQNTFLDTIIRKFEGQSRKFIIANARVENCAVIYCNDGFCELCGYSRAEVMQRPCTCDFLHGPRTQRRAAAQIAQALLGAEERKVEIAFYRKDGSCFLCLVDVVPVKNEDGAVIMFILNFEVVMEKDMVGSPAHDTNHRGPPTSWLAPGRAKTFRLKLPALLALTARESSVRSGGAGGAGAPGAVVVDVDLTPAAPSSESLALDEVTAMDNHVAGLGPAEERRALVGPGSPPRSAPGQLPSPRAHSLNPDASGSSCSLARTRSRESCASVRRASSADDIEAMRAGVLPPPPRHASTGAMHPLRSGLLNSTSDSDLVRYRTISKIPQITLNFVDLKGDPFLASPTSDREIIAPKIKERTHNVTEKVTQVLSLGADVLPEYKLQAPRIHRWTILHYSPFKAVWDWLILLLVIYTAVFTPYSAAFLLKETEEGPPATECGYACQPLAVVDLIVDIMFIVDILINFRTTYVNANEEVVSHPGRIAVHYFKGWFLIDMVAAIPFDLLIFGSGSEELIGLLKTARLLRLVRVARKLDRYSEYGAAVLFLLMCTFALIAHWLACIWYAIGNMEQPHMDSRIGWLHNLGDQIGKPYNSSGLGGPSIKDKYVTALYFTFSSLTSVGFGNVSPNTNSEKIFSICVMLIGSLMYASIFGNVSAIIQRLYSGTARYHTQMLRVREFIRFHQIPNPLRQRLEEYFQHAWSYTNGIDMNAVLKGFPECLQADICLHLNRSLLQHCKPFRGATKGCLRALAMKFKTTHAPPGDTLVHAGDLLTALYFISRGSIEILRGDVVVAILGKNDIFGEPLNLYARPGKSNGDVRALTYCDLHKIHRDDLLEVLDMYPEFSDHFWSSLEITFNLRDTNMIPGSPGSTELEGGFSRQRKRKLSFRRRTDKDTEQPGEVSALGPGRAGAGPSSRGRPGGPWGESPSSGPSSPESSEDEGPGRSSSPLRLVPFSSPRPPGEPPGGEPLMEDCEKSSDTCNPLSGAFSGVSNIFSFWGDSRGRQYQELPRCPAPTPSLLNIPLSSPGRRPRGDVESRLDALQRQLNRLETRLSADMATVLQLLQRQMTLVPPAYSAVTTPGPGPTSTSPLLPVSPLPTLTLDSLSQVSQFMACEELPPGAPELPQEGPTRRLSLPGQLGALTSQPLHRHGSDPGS
Experimental: Materials and Methods: CHO cells (transformed with adenovirus 5 DNA; Stably transfected with full length hERG cDNA) were cultured in Ham's F-12 supplemented with 10% fetal bovine serum, 100 U/mL penicillin G sodium, 100 μg/mL streptomycin sulfate and 400 μg/mL Zeocin. Before testing, cells in culture dishes were rinsed with Hank's Balanced Salt Solution, detached with accutase.
HEPES-buffered intracellular solution (Charles River proprietary) for whole cell recordings was loaded into the intracellular compartment of the SP384PE. Extracellular buffer (HB-PS) and Cell suspension (in HB-PS) were pipetted into the extracellular compartment of the SP384PE chip. After establishment of a whole-cell configuration, membrane currents were recorded using patch clamp amplifier in the SP384PE system.
Test article (TA) concentrations (eight (8) concentrations of each test article were evaluated) were applied to naïve cells (n=4, where n=replicates/concentration). Each application consisted of addition of 40 μL of 2× concentrated test article solution to the total 80 μL of final volume of the extracellular well of the SP384PE chip. Duration of exposure to each compound concentration was five (5) minutes.
hERG current was measured using stimulus voltage patterns with fixed amplitudes: activation pre-pulse (TP1) to +40 mV for 2 s and test pulse (TP2) to −40 mV for 2 s from a holding potential of −80 mV. hERG current was measured as the outward peak current at TP2 (tail current). The stimulation was repeated with 0.1 Hz frequency during 2 min as baseline and 5 min after TA application.
Data acquisition and analyses were performed using the SP384PE system operation software. The decrease in current amplitude after TA application was used to calculate the percent block relative to control.
Tonic Block effect was calculated as:
[formula] • where ITP2, baseline and ITP2, TA were the outward peak K^+ currents elicited by the TP2 before application and 5 min after application of a test article, respectively.
The data were corrected for run-down:
[formula] • where % VC and % PC were the mean values of the current block with the vehicle and positive controls, respectively.
Concentration-response data were fitted to an equation of the following form:
[formula] • where [Test] was the concentration of test article, IC50 was the concentration of the test article producing half-maximal block, N was the Hill coefficient, % VC was the mean current block at the vehicle control and % Block was the percentage of ion channel current inhibited at each concentration of a test article. Nonlinear least squares fits were solved with the XLfit add-in for Excel (Microsoft, Redmond, WA).
In this study, hERG Ion channel block of IC50 values were determined. […] In brief, CHO cells were cultured in Ham's F-12 supplemented with 10% fetal bovine serum, 100 U/mL penicillin G sodium, 100 μg/mL streptomycin sulfate and 400 μg/mL Zeocin. Before testing, cells in culture dishes were rinsed with Hank's Balanced Salt Solution, detached with accutase. […] Test article (TA) concentrations were applied to naïve cells (n=4, where n=replicates/concentration). Each application consisted of addition of 40 μL of 2× concentrated test article solution to the total 80 μL of final volume of the extracellular well of the SP384PE chip. Duration of exposure to each compound concentration was five (5) minutes. hERG current was measured using stimulus voltage patterns with fixed amplitudes: activation pre-pulse (TP1) to +40 mV for 2 s and test pulse (TP2) to −40 mV for 2 s from a holding potential of −80 mV. hERG current was measured as the outward peak current at TP2 (tail current). The stimulation was repeated with 0.1 Hz frequency during 2 min as baseline and 5 min after TA application. Data acquisition and analyses were performed using the SP384PE system operation software.

[6] = eLogD (lipophilicity; pH 7.4) by HPLC; type: physicochemical
Experimental: Test compounds were dissolved in DMSO at a concentration of 10 mM and further diluted with methanol:water 1:1. Samples were analyzed using gradient HPLC with three different isocratic mobile phases of 0.25% octanol in methanol (60, 65 and 70%) and 20 mM MOPS buffer (pH 7.4) with decylamine. If needed, (for low E log Doct compounds) the isocratic mobile phases were adjusted to e.g. 40, 45 and 50% methanol. Peaks were detected using a diode array at absorbance 220-320 nm.
Capacity factors data (k′_=(tr−_t0)/t0) obtained at various amounts of methanol were extrapolated to 0% methanol and k′w values are determined using a linear procedure. E log Doct (7.4) is calculated using a series of reference standards with known Log D values. Each experiment was performed in triplicate.

[7] = target: T1, CYP2C19; experiment: in vitro; settings: microsomes, pH 7.4
[8] = target: T3, CYP2D6; experiment: in vitro; settings: microsomes, pH 7.4
[9] = target: T2, CYP3A4; experiment: in vitro; settings: microsomes, pH 7.4
[10] = free base (Table 19), read-out: Kinetic Solubility
[11] = read-out: IC50 (μM), hERG ion channel block, Example 46, 5 min exposure per concentration
[12] = PBS buffer, pH 7.4, aqueous buffer, kinetic from dmso stock, free base (Table 19), read-out: Kinetic Solubility

T1 sequence (P33261 whole entry): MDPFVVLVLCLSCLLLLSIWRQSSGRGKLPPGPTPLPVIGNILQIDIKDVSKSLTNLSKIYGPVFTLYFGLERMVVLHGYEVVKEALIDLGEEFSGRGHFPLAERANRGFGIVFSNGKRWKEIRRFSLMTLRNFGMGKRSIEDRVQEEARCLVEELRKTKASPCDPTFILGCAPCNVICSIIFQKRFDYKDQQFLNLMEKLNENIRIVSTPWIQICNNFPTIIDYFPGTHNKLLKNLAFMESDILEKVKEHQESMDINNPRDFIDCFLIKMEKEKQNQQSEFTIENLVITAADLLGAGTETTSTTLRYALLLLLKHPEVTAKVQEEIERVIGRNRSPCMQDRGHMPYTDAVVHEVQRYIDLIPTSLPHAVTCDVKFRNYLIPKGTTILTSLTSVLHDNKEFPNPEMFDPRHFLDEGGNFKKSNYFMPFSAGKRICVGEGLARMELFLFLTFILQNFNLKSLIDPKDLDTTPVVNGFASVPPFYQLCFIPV

| SMILES | CYP-2C19 (Mephenytoin) mean percentage CYP inhibition [1] [%] | CYP-3A4 (Midazolam) mean percentage CYP inhibition [3] [%] | CYP-3A4 (Testosterone) mean percentage CYP inhibition [3] [%] | CYP-2D6 (Dextromethorphan) mean percentage CYP inhibition [4] [%] | solubility kinetic at 4 h [2, 12] [µM] | IC50 [5] [µM] | inhibition at 30 min, 10 µM [7] [%] | inhibition at 30 min, 10 µM [8] [%] | other results |
| --- | --- | --- | --- | --- | --- | --- | --- | --- | --- |
| CNS(=O)(=O)Nc1cccc(Cc2c(CN(C)C)c3ccc(OC(=O)N(C)C)cc3oc2=O)c1F [Compound 9] | 17.4 | 9.6 | 30.9 | 4.4 | – | – | – | – | Kinetic Solubility (PBS pH = 7.4; 4 hr) ([2]; PBS pH = 7.4, 4 hr (Table 8)): >80 uM; solubility kinetic at 4 h [2, 10]: >80 µM; IC50 [5, 11]: 22.4 µM; eLogD (lipophilicity; pH = 7.4) [6]: 3.0 |
| CNS(=O)(=O)Nc1cccc(Cc2c(CN(C)C)c3cc(F)c(OC(=O)N(C)C)cc3oc2=O)c1F [Compound 25] | 26.5 | 48.5 | 47.2 | 5.7 | – | – | – | – | solubility kinetic at 4 h [2, 10]: >80 µM |
| CCS(=O)(=O)Nc1cccc(Cc2c(CN(C)C)c3ccc(OC(=O)N(C)C)cc3oc2=O)c1F [Compound 120] | 14.2 | 11.4 | 12.6 | −1.9 | – | – | – | – | solubility kinetic at 4 h [2, 10]: >80 µM |
| CNS(=O)(=O)Nc1nccc(Cc2c(CN(C)C)c3ccc(OC(=O)N(C)C)cc3oc2=O)c1F [Compound 124] | 50.6 | 63.2 | 62.6 | 10.8 | – | – | – | – | IC50 [5, 11]: 4.2 µM |
| CNS(=O)(=O)Nc1cccc(Cc2c(CN3CCNCC3)c3cc(F)c(OC(=O)N(C)C)cc3oc2=O)c1F [Compound 134] | 20.6 | 44.5 | 52.6 | 0.5 | – | – | – | – | – |
| CCCS(=O)(=O)Nc1cccc(Cc2c(CN3CCNCC3)c3cc(Cl)c(OC(=O)N(C)C)cc3oc2=O)c1F [Compound 167] | 67.1 | 54.8 | 51.2 | 10.1 | – | – | – | – | IC50 [5, 11]: 1.5 µM |
| CCN(C)Cc1c(Cc2cccc(NS(=O)(=O)NC)c2F)c(=O)oc2cc(OC(=O)N(C)C)c(F)cc12 [Compound 238] | – | – | – | – | 40 (≈ 21.5 µg/mL) | 19.4 | – | – | – |
| CCN(C)Cc1c(Cc2cccc(NS(=O)(=O)NC)c2Cl)c(=O)oc2cc(OC(=O)N(C)C)ccc12 [Compound 245, 3-(2-chloro-3-((N-methylsulfamoyl)amino)benzyl)-4-((ethyl(methyl)amino)methyl)-2-oxo-2H-chromen-7-yl dimethylcarbamate] | – | 42.3 | 72.8 | – | 28 (≈ 15 µg/mL) | 16.1 | 29 | 13.7 | – |
| CNS(=O)(=O)Nc1cccc(Cc2c(CN3CCNCC3)c3ccc(OC(=O)N(C)C)cc3oc2=O)c1Cl [Compound 246, 3-(2-chloro-3-((N-methylsulfamoyl)amino)benzyl)-2-oxo-4-(piperazin-1-ylmethyl)-2H-chromen-7-yl dimethylcarbamate hydrochloride] | – | – | 24.6 | – | – | > 30 | 22 | 5.1 | inhibition at 30 min, 10 µM [9]: 16.2% |
| CNS(=O)(=O)Nc1cccc(Cc2c(CN3CCNCC3)c3cc(Cl)c(OC(=O)N(C)C)cc3oc2=O)c1Cl [Compound 256, 6-chloro-3-(2-chloro-3-((N-methylsulfamoyl)amino)benzyl)-2-oxo-4-(piperazin-1-ylmethyl)-2H-chromen-7-yl dimethylcarbamate hydrochloride] | – | – | 69.2 | – | > 80 | 21.6 | 40.8 | 7.1 | inhibition at 30 min, 10 µM [9]: 61.8% |
| CCS(=O)(=O)Nc1cccc(Cc2c(CN3CCNCC3)c3cc(Cl)c(OC(=O)N(C)C)cc3oc2=O)c1Cl [Compound 257, 6-chloro-3-(2-chloro-3-(ethylsulfonamido)benzyl)-2-oxo-4-(piperazin-1-ylmethyl)-2H-chromen-7-yl dimethylcarbamate hydrochloride] | – | – | 66.0 | – | > 80 | 8.4 | 47.5 | 10.1 | inhibition at 30 min, 10 µM [9]: 67.4% |
| CNS(=O)(=O)Nc1cccc(Cc2c(CN(C)C)c3ccc(OC(=O)N(C)C)cc3oc2=O)c1Cl [Compound 274, 3-(2-chloro-3-((N-methylsulfamoyl)amino)benzyl)-4-((dimethylamino)methyl)-2-oxo-2H-chromen-7-yl dimethylcarbamate] | – | 20.1 | 50.4 | – | 78 (≈ 40.8 µg/mL) | > 30 | 15.1 | 2.5 | – |
| Cn1cnc2c(F)c(Nc3ccc(Br)cc3Cl)c(C(=O)NOCCO)cc21 [Reference-1, Selumetinib] | – | – | – | – | – | – | – | – | solubility kinetic at 4 h ([2]; PBS buffer, aqueous buffer, kinetic from dmso stock, PBS pH = 7.4, 4 hr (Table 7), read-out: Kinetic Solubility (PBS pH = 7.4; 4 hr)): 36 µM (≈ 16.5 µg/mL); IC50 at 5 min ([5]; human): > 30 µM; chromatographic logD [6]: 3.6 |
| CNS(=O)(=O)Nc1nccc(Cc2c(C)c3ccc(Oc4ncccn4)cc3oc2=O)c1F [Reference-2, reference compound] | – | – | – | – | – | – | – | – | chromatographic logD [6]: 3.6 |

Source: US20250179057A1, “MEK IMMUNE ONCOLOGY INHIBITORS AND THERAPEUTIC USES THEREOF” (Immuneering Corporation, priority 2022, published 2025)
